Source: ChEMBL document CHEMBL3885861, “Open TG-GATES”

Species: Rattus norvegicus
Assay: Open TG-GATES - Regimen: Single
Assay type: toxicity, organism-based, Sprague-Dawley
Parameters: regimen Single, gender Male, age 6 weeks
Settings: in vivo, po, 0 mg/kg, route gavage, dose level Control; for APTT / Bas / Eos / Fbg / Hb / Ht / Lym / MCH / MCHC / MCV / Mono / Neu / PT / Plat / RBC / Ret / WBC: tissue Blood; for KIDNEY_L / KIDNEY_R / KIDNEY_TOTAL: tissue Kidney; for LIVER: tissue Liver; for A/G / ALP / ALT / AST / BUN / CRE / Ca / Cl / DBIL / GLC / IP / K / LDH / Na / PL / RALB / TBIL / TC / TG / TP / gamma-GTP: tissue Plasma

C[C@]12CCC(=O)C=C1CC[C@@H]1[C@@H]2CC[C@@]2(C)[C@H]1CC[C@]2(C)O [METHYLTESTOSTERONE]
TERMINAL_BW (3 h): 202.4 g
APTT (3 h): 15.7 s
Bas (3 h): 0%
Eos (3 h): 1%
Fbg (3 h): 277 mg/dL
Hb (3 h): 13.3 g/dL
Ht (3 h): 39%
Lym (3 h): 74.2%
MCH (3 h): 21.5 pg
MCHC (3 h): 34%
MCV (3 h): 63.3 fL
Mono (3 h): 3.6%
Neu (3 h): 20.6%
PT (3 h): 13.2 s
Plat (3 h): 111.8 x10_4/uL
RBC (3 h): 616.6 x10_4/ul
Ret (3 h): 8.5%
WBC (3 h): 71.2 x10_2/uL
KIDNEY_L (3 h): 0.9 g
KIDNEY_R (3 h): 0.9 g
KIDNEY_TOTAL (3 h): 1.8 g
LIVER (3 h): 8.7 g
A/G (3 h): 0.9
ALP (3 h): 1644.6 IU/L
ALT (3 h): 45.4 IU/L
AST (3 h): 80.2 IU/L
BUN (3 h): 9.6 mg/dL
CRE (3 h): 0.2 mg/dL
Ca (3 h): 10.9 mg/dL
Cl (3 h): 105.6 meq/L
DBIL (3 h): 0.01 mg/dL
GLC (3 h): 182.8 mg/dL
IP (3 h): 9.8 mg/dL
K (3 h): 4.4 meq/L
LDH (3 h): 59.4 IU/L
Na (3 h): 142 meq/L
PL (3 h): 136.4 mg/dL
RALB (3 h): 2.6 g/dL
TBIL (3 h): 0.038 mg/dL
TC (3 h): 86.2 mg/dL
TG (3 h): 31.8 mg/dL
TP (3 h): 5.5 g/dL
gamma-GTP (3 h): 1.6 IU/L
TERMINAL_BW (6 h): 202.9 g
APTT (6 h): 17.1 s
Bas (6 h): 0%
Eos (6 h): 0.8%
Fbg (6 h): 299 mg/dL
Hb (6 h): 13.1 g/dL
Ht (6 h): 38.7%
Lym (6 h): 75.6%
MCH (6 h): 21.5 pg
MCHC (6 h): 34%
MCV (6 h): 63.4 fL
Mono (6 h): 3.6%
Neu (6 h): 19.4%
PT (6 h): 13.2 s
Plat (6 h): 112.5 x10_4/uL
RBC (6 h): 612 x10_4/ul
Ret (6 h): 8.2%
WBC (6 h): 68.1 x10_2/uL
KIDNEY_L (6 h): 0.9 g
KIDNEY_R (6 h): 0.9 g
KIDNEY_TOTAL (6 h): 1.7 g
LIVER (6 h): 8.5 g
A/G (6 h): 0.9
ALP (6 h): 1516.2 IU/L
ALT (6 h): 41.8 IU/L
AST (6 h): 72.4 IU/L
BUN (6 h): 9 mg/dL
CRE (6 h): 0.2 mg/dL
Ca (6 h): 10.8 mg/dL
Cl (6 h): 108 meq/L
DBIL (6 h): 0.012 mg/dL
GLC (6 h): 185.4 mg/dL
IP (6 h): 10.1 mg/dL
K (6 h): 4.1 meq/L
LDH (6 h): 65.6 IU/L
Na (6 h): 142.2 meq/L
PL (6 h): 133.4 mg/dL
RALB (6 h): 2.6 g/dL
TBIL (6 h): 0.046 mg/dL
TC (6 h): 79.8 mg/dL
TG (6 h): 40.6 mg/dL
TP (6 h): 5.5 g/dL
gamma-GTP (6 h): 1.4 IU/L
TERMINAL_BW (9 h): 203.4 g
APTT (9 h): 16.8 s
Bas (9 h): 0%
Eos (9 h): 1%
Fbg (9 h): 285.6 mg/dL
Hb (9 h): 13.2 g/dL
Ht (9 h): 38.5%
Lym (9 h): 74.4%
MCH (9 h): 21.3 pg
MCHC (9 h): 34.2%
MCV (9 h): 62.4 fL
Mono (9 h): 3%
Neu (9 h): 21.2%
PT (9 h): 12.8 s
Plat (9 h): 108.1 x10_4/uL
RBC (9 h): 616.6 x10_4/ul
Ret (9 h): 8.5%
WBC (9 h): 59.4 x10_2/uL
KIDNEY_L (9 h): 0.9 g
KIDNEY_R (9 h): 0.9 g
KIDNEY_TOTAL (9 h): 1.8 g
LIVER (9 h): 7.9 g
A/G (9 h): 0.9
ALP (9 h): 1387.4 IU/L
ALT (9 h): 42.2 IU/L
AST (9 h): 76.2 IU/L
BUN (9 h): 7.4 mg/dL
CRE (9 h): 0.2 mg/dL
Ca (9 h): 10.4 mg/dL
Cl (9 h): 105.2 meq/L
DBIL (9 h): 0.01 mg/dL
GLC (9 h): 171.4 mg/dL
IP (9 h): 10.6 mg/dL
K (9 h): 4.1 meq/L
LDH (9 h): 60.6 IU/L
Na (9 h): 141 meq/L
PL (9 h): 137.4 mg/dL
RALB (9 h): 2.5 g/dL
TBIL (9 h): 0.044 mg/dL
TC (9 h): 90.2 mg/dL
TG (9 h): 23 mg/dL
TP (9 h): 5.4 g/dL
gamma-GTP (9 h): 1.4 IU/L
TERMINAL_BW (24 h): 210.8 g
APTT (24 h): 17.4 s
Bas (24 h): 0%
Eos (24 h): 1%
Fbg (24 h): 275 mg/dL
Hb (24 h): 13.2 g/dL
Ht (24 h): 38.6%
Lym (24 h): 76%
MCH (24 h): 21.7 pg
MCHC (24 h): 34.2%
MCV (24 h): 63.6 fL
Mono (24 h): 2.8%
Neu (24 h): 19.6%
PT (24 h): 12.9 s
Plat (24 h): 111.5 x10_4/uL
RBC (24 h): 607.4 x10_4/ul
Ret (24 h): 8.1%
WBC (24 h): 74.8 x10_2/uL
KIDNEY_L (24 h): 0.9 g
KIDNEY_R (24 h): 0.9 g
KIDNEY_TOTAL (24 h): 1.9 g
LIVER (24 h): 9.8 g
A/G (24 h): 0.9
ALP (24 h): 1818.4 IU/L
ALT (24 h): 48.4 IU/L
AST (24 h): 74.2 IU/L
BUN (24 h): 14.8 mg/dL
CRE (24 h): 0.2 mg/dL
Ca (24 h): 11.1 mg/dL
Cl (24 h): 106.2 meq/L
DBIL (24 h): 0.02 mg/dL
GLC (24 h): 194.2 mg/dL
IP (24 h): 8.1 mg/dL
K (24 h): 4.3 meq/L
LDH (24 h): 63.4 IU/L
Na (24 h): 140.8 meq/L
PL (24 h): 149.8 mg/dL
RALB (24 h): 2.7 g/dL
TBIL (24 h): 0.036 mg/dL
TC (24 h): 80.8 mg/dL
TG (24 h): 114.6 mg/dL
TP (24 h): 5.7 g/dL
gamma-GTP (24 h): 1.4 IU/L
